Results taken from patent US9675823B2 (Colgate-Palmolive Company, priority 2012, dated 2017).

Key:
[1] = pH of the mixture or of the acidified cysteine solution; conditions: 0.05 g of cysteine in 1 mL of 0.0001 M HCl
[2] = Precipitation time upon mixing the cysteine solution and the ZLC solution; assay type: physicochemical

## N[C@@H](CS)C(=O)O [cysteine]
[1]
  pH of solution 1: 5.13

## CSCC[C@H](N)C(=O)O [methionine]
[2]; 0.05 g amino acid in 1 mL 0.0001M HCl, 4.95 g ZLC stock solution with no glycerol
  precipitation upon mixing: No precipitation occurred
[2]; sulfur-containing amino acids
  effect on precipitation time of ZLC: no effect
